{"source": "patent US10273290B2", "about": "“Hydrocarbon double-stapled stabilized HIV-1 GP41 heptad repeat domain peptides” (DANA-FARBER CANCER INSTITUTE, INC., priority 2009, dated 2019)", "key": {"chymotrypsin": {"molecular_target": "T1, chymotrypsin (Bos taurus, UniProt P00766)", "T1 construct": "purchased Sigma", "experiment": "Protease resistance assay, chymotrypsin (LC/MS)", "type": "in vitro ADME", "conditions": "pH 7.4, 0.5 chymotrypsin, peptide 25 μM", "procedure": "The DAD signal was set to 280 nm with an 8 nm bandwidth and MSD set to scan mode with one channel at (M+2H)/2, +1 mass units and the other at (M+3H)/3, +1 mass units. Integration of each MSD signal yielded areas under the curve of >10^8 counts. Reaction samples were composed of 5 μL peptide in DMSO (1 mM stock) and 195 μL of buffer consisting of 50 mM phosphate buffer pH 7.4 containing 2 mM CaCl2. Upon injection of the 0 hr time point sample, 2 μL of 50 ng/μL chymotrypsin (Sigma) was added and the amount of intact peptide quantitated by serial injection over time. An internal control of acetylated tryptophan carboxamide at a concentration of 100 μM was used to normalize each MSD data point. A plot of MSD area versus time yielded an exponential decay curve and half-lives were determined by nonlinear regression analysis using Prism software (GraphPad)."}, "[1]": {"experiment": "Circular dichroism, α-helical content", "type": "physicochemical", "conditions": "pH 2 versus pH 7", "how_it_was_run": "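Far-UV CD spectra recorded at 20° C, 190-260 nm, 0.1 cm path, 10 accumulations. Percent α-helicity from mean residue ellipticity at 222 nm: 100×[θ]222/max[θ]222, with max[θ]222=−40,000×[1−(2.5/number of residues)]. Secondary-structure fractions also estimated by CDNN curve-fitting.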"}, "in vivo": {"experiment": "in vivo", "conditions": "mouse, plasma, iv", "source_text": "Plasma concentration, mean+standard error; ND, nondetectable."}, "[2]": {"experiment": "Pharmacokinetics in mice, intravenous or oral gavage", "type": "in vivo, Male C57/BL6 mice", "experimental": "Peptides were incubated (5-10 μg) with mouse plasma at 37° C. or injected (10, mg/kg) by tail vein into male C57/BL6 mice. […] For ex vivo serum stability studies, peptide half-lives were calculated by nonlinear regression analysis of exponential decay curves plotted using Prism software (Graphpad). In vivo plasma concentrations at the indicated time points were used to calculate plasma half-life, peak plasma levels, total plasma clearance, and apparent volume of distribution using noncompartmental analysis.\nBlood samples withdrawn at 30 minutes by retro-orbital bleed were subjected to quantitation using LC/MS-based blood tests."}, "[3]": {"tested_on": "HIV-1 HXBc2 virus bearing HR1 double mutations V38A/N42T and V38E/N42S", "experiment": "HIV-1 infectivity assay, enfuvirtide-resistant HR1 double mutants", "type": "cell-based", "experimental": "HIV-1 infectivity assays were performed using known methods (Madani et al., 2007 Inhibition of human immunodeficiency virus envelope glycoprotein-mediated single cell lysis by low-molecular-weight antagonists of viral entry. J Virol, 81: 532-538; and Si et al., 2001 Envelope glycoprotein determinants of neutralization resistance in a simian-human immunodeficiency virus (SHIV-HXBc2P 3.2) derived by passage in monkeys. J Virol, 75:4208-4218; both incorporated herein by reference). […] Virus-containing supernatants were harvested 24-30 hr after transfection, filtered, aliquoted, and stored at −80° C. Target cells were seeded at a density of 6×10^3 cells/well in 96-well plates 24 hours prior to infection. Cf2Th-CD4-CCR5 cells were used for infections by viruses with the ADA, YU2, and A-MLV envelope glycoproteins, and Cf2Th-CD4-CXCR4 cells used for HXBc2, HXBc2P 3.2, and A-MLV. On the day of infection, the structured peptides (0-3 μM) were added to recombinant viruses (10,000 RT units) to a final volume of 50 μL and incubated at 37° C. for 30 min. Media was then removed and the target cells incubated with virus-peptide mixture for 48 hours at 37° C. The media was again removed and the cells lysed with 30 μL of passive lysis buffer (Promega) and three freeze-thaw cycles."}}, "note": "“Also recorded” adds a separate entry of the source. Bridge positions count the residues as written; N and C are the ends. Square brackets hold non-standard residues; d marks the D form. Peptide text beside a SMILES is read from it. S5 = C=CCCC[C@](C)(N)C(=O)O; Nle = CCCC[C@H](N)C(=O)O"}
{"smiles": "CCCC[C@H](NC(C)=O)C(=O)N[C@H](C(=O)N[C@@H](Cc1c[nH]c2ccccc12)C(=O)N[C@@]1(C)CCCC=CCCC[C@@](C)(C(=O)N[C@@H](CCC(=O)O)C(=O)N[C@H](C(=O)N[C@@H](CC(N)=O)C(=O)N[C@@H](CC(N)=O)C(=O)N[C@@H](Cc2ccc(O)cc2)C(=O)N[C@H](C(=O)N[C@@H](CO)C(=O)N[C@@H](CC(C)C)C(=O)N[C@H](C(=O)N[C@@H](Cc2c[nH]cn2)C(=O)N[C@@H](CO)C(=O)N[C@@H](CC(C)C)C(=O)N[C@H](C(=O)N[C@@H](CCC(=O)O)C(=O)N[C@@H](CCC(=O)O)C(=O)N[C@@H](CO)C(=O)N[C@@H](CCC(N)=O)C(=O)N[C@@H](CC(N)=O)C(=O)N[C@@H](CCC(N)=O)C(=O)N[C@@]2(C)CCCC=CCCC[C@@](C)(C(=O)N[C@@H](CCC(N)=O)C(=O)N[C@@H](CCC(=O)O)C(=O)N[C@@H](CC(C)C)C(=O)N[C@@H](CC(C)C)C(=O)N[C@@H](CCC(=O)O)C(N)=O)NC(=O)[C@H](CC(N)=O)NC(=O)[C@H](CCCCN)NC(=O)[C@H](CCC(=O)O)NC2=O)[C@@H](C)CC)[C@@H](C)CC)[C@@H](C)O)[C@@H](C)CC)NC(=O)[C@H](CC(=O)O)NC(=O)[C@H](Cc2c[nH]c3ccccc23)NC(=O)[C@H](CCC(=O)O)NC1=O)[C@@H](C)O", "note": "[SAH-gp41(626-662)(A, F)] (Ac-[Nle]TW[S5]EWD[S5]EINNYTSLIHSLIEESQNQ[S5]EKN[S5]QELLE-NH2; staple 4-8, 28-32; N-terminus and C-terminus assumed)", "values": [{"measurement": "Half-Life", "setting": "chymotrypsin", "value": 5.02, "unit": "h"}, {"measurement": "α-helicity, in words", "setting": "[1]", "value": "even greater α-helicity at pH 2 than at pH 7"}, {"measurement": "Cmax", "setting": "in vivo", "value": 140, "unit": "µg/mL"}, {"measurement": "CL", "value": 1.0, "unit": "mL/min/kg"}, {"measurement": "level measured in the blood, fold of unmodified peptide", "setting": "[2]; 10 mg/kg, blood samples at 30 minutes", "value": "more than 6 fold"}, {"measurement": "in vivo stability, in words", "setting": "[2]; intravenous, 10 mg/kg, plasma concentrations of intact peptide", "value": "marked in vivo stability"}, {"measurement": "fold decrease in clearance", "setting": "[2]; noncompartmental analysis", "value": "about 10 fold"}, {"measurement": "fold enhancement in area under the curve (AUC)", "setting": "[2]; noncompartmental analysis, serial blood draws", "value": "about 10 fold"}, {"measurement": "intact peptide in blood/plasma after oral administration", "setting": "[2]; oral gavage, 30 minutes after administration", "value": "measurable and dose-responsive levels; also recorded: measurable and dose-responsive plasma concentrations"}, {"measurement": "functional activity against HR1 double-mutant HIV-1, in words", "setting": "[3]", "value": "dose-responsively suppressed HIV-1 infectivity"}]}
